Experimental data reported in US8536354B2, “Steroidal ligands and their use in gene switch modulation” (Intrexon Corporation, priority 2008, dated 2013).
Where two headings read alike, the source gives them in different places.

How the values were obtained:
[1] = molecular target: T1, MsEcR (GAL4-EcR DEF with VP16-RXR-USP chimera) (Manduca sexta, UniProt P49883); assay: Two-hybrid gene switch assay, luciferase reporter, MsEcR, mouse NIH3T3 cells
T1 sequence (P49883 1-556): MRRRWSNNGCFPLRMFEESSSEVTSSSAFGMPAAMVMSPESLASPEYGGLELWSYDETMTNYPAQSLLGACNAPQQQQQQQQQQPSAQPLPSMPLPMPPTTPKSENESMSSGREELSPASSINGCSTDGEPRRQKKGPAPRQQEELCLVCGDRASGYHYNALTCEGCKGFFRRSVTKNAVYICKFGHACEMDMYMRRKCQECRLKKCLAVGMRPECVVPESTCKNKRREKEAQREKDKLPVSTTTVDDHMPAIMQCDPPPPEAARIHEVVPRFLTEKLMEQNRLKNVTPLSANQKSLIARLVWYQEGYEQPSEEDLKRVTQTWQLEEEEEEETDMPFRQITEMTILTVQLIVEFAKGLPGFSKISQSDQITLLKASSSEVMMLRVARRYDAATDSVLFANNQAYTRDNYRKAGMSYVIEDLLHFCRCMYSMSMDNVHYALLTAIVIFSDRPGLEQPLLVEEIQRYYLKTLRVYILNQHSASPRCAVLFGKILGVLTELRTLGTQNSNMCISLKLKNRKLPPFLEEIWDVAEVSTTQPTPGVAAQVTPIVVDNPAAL
T1 sequence (P28702 1-533 partner): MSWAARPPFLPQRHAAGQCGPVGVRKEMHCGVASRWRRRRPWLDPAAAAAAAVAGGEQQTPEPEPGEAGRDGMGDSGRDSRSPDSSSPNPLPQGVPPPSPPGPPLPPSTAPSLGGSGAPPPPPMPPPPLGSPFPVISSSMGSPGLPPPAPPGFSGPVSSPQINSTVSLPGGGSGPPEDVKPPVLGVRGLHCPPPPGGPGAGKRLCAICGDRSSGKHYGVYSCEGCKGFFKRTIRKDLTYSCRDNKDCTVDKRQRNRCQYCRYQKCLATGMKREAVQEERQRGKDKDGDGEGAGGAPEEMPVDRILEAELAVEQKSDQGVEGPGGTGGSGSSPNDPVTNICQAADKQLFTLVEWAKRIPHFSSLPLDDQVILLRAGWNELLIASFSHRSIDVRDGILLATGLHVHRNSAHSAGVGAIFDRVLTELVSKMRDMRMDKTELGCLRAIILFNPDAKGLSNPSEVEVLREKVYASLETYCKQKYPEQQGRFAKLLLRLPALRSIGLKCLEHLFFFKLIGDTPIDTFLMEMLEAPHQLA

[2] = molecular target: T2, BaEcR (GAL4-EcR DEF with VP16-RXR-USP chimera) (Bemisia tabaci, UniProt A0A6M3RDR8); assay: Two-hybrid gene switch assay, luciferase reporter, BaEcR, mouse NIH3T3 cells
T2 sequence (A0A6M3RDR8 115-530): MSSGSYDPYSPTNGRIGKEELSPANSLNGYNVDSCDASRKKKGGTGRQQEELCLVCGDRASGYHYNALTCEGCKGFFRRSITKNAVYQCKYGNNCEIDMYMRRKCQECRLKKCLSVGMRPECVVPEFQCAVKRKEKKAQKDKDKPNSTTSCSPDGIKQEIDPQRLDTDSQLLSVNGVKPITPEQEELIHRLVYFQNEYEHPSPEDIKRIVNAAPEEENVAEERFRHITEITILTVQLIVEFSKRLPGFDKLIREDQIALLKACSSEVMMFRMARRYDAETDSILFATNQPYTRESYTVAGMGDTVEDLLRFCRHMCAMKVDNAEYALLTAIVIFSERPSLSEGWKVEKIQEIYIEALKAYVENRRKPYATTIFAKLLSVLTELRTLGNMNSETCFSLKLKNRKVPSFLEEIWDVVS
T2 sequence (P28702 1-533 partner): T1 sequence (P28702 1-533 partner)

[3] = molecular target: T3, wild-type CfEcR (GAL4-CfEcR-DEF with VP16-RXR-USP chimera) (Choristoneura fumiferana, UniProt O77255); assay: Two-hybrid gene switch assay, luciferase reporter, wild-type CfEcR, mouse NIH3T3 cells
T3 sequence (O77255 219-541): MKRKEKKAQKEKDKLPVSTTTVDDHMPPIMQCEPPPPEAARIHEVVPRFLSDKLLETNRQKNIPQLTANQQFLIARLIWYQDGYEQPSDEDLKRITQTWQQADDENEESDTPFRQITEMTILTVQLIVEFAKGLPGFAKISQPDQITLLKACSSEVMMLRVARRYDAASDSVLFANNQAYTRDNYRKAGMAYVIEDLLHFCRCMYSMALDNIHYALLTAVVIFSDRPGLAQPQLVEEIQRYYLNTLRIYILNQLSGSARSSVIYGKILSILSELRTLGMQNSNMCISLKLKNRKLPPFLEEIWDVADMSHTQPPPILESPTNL
T3 sequence (P28702 1-533 partner): T1 sequence (P28702 1-533 partner)

[4] = molecular target: T4, TmEcR (GAL4-EcR DEF with VP16-RXR partner) (Tenebrio molitor, UniProt O02035); assay: Two-hybrid gene switch assay, luciferase reporter, TmEcR, mouse NIH3T3 cells
T4 sequence (O02035 194-491): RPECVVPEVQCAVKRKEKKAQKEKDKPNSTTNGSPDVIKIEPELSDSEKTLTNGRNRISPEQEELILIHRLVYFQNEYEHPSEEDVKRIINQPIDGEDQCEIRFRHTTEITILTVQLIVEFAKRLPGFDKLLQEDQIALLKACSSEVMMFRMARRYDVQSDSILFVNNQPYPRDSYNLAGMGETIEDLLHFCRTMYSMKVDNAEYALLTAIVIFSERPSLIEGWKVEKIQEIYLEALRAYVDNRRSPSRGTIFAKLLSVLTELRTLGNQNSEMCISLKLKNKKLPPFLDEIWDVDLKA
T4 sequence (P28704 1-520 partner): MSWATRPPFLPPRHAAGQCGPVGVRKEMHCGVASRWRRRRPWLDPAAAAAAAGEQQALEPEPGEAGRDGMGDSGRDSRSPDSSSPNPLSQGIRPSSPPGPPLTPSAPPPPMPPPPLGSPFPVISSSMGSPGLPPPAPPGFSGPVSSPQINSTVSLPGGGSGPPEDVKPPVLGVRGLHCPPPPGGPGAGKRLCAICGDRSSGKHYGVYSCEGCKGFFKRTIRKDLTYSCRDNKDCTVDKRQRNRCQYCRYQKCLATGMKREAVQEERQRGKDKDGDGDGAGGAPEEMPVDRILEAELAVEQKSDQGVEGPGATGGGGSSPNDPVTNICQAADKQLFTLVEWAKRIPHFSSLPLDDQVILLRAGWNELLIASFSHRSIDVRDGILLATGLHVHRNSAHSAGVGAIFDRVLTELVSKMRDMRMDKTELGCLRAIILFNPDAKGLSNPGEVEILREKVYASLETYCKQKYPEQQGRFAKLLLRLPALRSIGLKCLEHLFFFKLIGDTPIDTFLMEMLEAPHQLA

[5] = EC50, FIG. 13A/13B, GAL4-EcR(DEF) with VP16-RXR-USP chimera
[6] = EC50, FIG. 14A/14B, GAL4-EcR(DEF) with VP16-RXR-USP chimera
[7] = EC50, FIG. 14A/14B, GAL4-EcR(DEF)

| SMILES | EC50 [1, 5] [µM] | EC50 [2, 6] [µM] | EC50 [3] [µM] | EC50 [4, 7] [µM] | EC50 ([1]; EC50, FIG. 15, GAL4-EcR (DEF) / VP16-RXR-USP chimera) [µM] | EC50 ([2]; EC50, FIG. 16, GAL4-EcR (DEF) / VP16-RXR-USP chimera) [µM] | EC50 ([3]; FIG. 15, CfEcR, GAL4-EcR (DEF) / VP16-RXR-USP chimera) [µM] | EC50 ([4]; EC50, FIG. 16, GAL4-EcR (DEF)) [µM] |
| --- | --- | --- | --- | --- | --- | --- | --- | --- |
| CC(C)(O)CC[C@@H](O)[C@](C)(O)[C@H]1CC[C@@]2(O)C3=C[C@H](O)[C@@H]4C[C@@H](O)[C@@H](O)C[C@]4(C)[C@H]3CC[C@]12C [Compound 6a-hydroxy-20-hydroxyecdysone] | > 33 | > 33 | > 33 | > 33 | – | – | – | – |
| C[C@H](CO)CC[C@@H](O)[C@](C)(O)[C@H]1CC[C@@]2(O)C3=CC(=O)[C@@H]4C[C@@H](O)[C@@H](O)C[C@]4(C)[C@H]3CC[C@]12C [(25S)-inokosterone] | ~10 | ~10 | > 33 | ~10 | – | – | – | – |
| CCC(CC(O)C(C)(O)C1CCC2(O)C3=CC(=O)C4CC(O)C(O)CC4(C)C3CCC12C)C(C)(C)O (stereo not shown) [makisterone C] | ~4 | ~3.3 | > 33 | ~4 | – | – | – | – |
| CC(=O)O[C@H](CCC(C)(C)O)[C@](C)(O)[C@H]1CC[C@@]2(O)C3=CC(=O)[C@@H]4C[C@@H](O)[C@@H](O)C[C@]4(C)[C@H]3CC[C@]12C [Compound 20-hydroxyecdysone-22-acetate] | ~2 | ~2 | > 33 | ~2 | – | – | – | – |
| CC(=O)OCC(=O)O[C@H](CCC(C)(C)O)[C@](C)(O)[C@H]1CC[C@@]2(O)C3=CC(=O)[C@@H]4C[C@@H](O)[C@@H](O)C[C@]4(C)[C@H]3CC[C@]12C [20-hydroxyecdysone 22-acetoxyacetate] | ~10 | ~12 | > 33 | ~10 | – | – | – | – |
| C[C@H]([C@H](O)CCC(C)(C)O)[C@H]1CC[C@@]2(O)C3=CC(=O)[C@@H]4C[C@@H](O)[C@@H](O)C[C@]4(C)[C@H]3CC[C@]12C [ecdysone] | > 33 | > 33 | > 33 | > 33 | > 33 | > 33 | > 33 | > 33 |
| CCC(=O)OC1CC2(C)C(C(C)(O)C(O)CCC(C)(C)O)CCC2(O)C2=CC(=O)C3CC(O)C(O)CC3(C)C21 (stereo not shown) [turkesterone-11 a -propionate] | > 33 | > 33 | > 33 | > 33 | – | – | – | – |
| C[C@@H](CO)CC[C@@H](O)[C@](C)(O)[C@H]1CC[C@@]2(O)C3=CC(=O)[C@@H]4C[C@@H](O)[C@@H](O)C[C@]4(C)[C@H]3CC[C@]12C [(25R)-inokosterone] | ~10 | ~10 | > 33 | ~20 | – | – | – | – |
| CC(C)CC[C@@H](O)[C@](C)(O)[C@H]1CC[C@@]2(O)C3=CC(=O)[C@@H]4C[C@@H](O)[C@@H](O)C[C@]4(C)[C@H]3[C@H](O)C[C@]12C [ajugasterone C] | ~7 | 2.06 | ~20 | 9.51 | – | – | – | – |
| CC(C(O)CCC(C)(C)O)C1CCC2(O)C3=CC(=O)C4CC(O)CCC4(C)C3CCC12C (stereo not shown) [Compound 2-deoxyecdysone] | > 33 | > 33 | > 33 | > 33 | – | – | – | – |
| CC1(C)OC(=O)C=C1CC(O)C(C)(O)C1CCC2(O)C3=CC(=O)C4CC(O)C(O)CC4(C)C3CCC12C (stereo not shown) [carthamosterone] | > 33 | > 33 | > 33 | > 33 | – | – | – | – |
| CC(C)=CC[C@@H](O)[C@](C)(O)[C@H]1CC[C@@]2(O)C3=CC(=O)[C@@H]4C[C@@H](O)[C@@H](O)C[C@]4(C)[C@H]3CC[C@]12C [stachysterone C] | 0.672 | 0.658 | ~10 | 1.47 | – | – | – | – |
| CC(C)(O)CC[C@@H](O)[C@](C)(O)[C@H]1CC[C@@]2(O)C3=CC(=O)[C@@H]4C[C@@H](O)[C@@H](O)C[C@]4(C)C3=CC[C@]12C [Compound 25-hydroxydacryhainansterone] | ~10 | ~15 | > 33 | ~20 | – | – | – | – |
| CCCCCCCCCC(=O)OC1CC2(C)C(C(C)(O)C(O)CCC(C)(C)O)CCC2(O)C2=CC(=O)C3CC(O)C(O)CC3(C)C21 (stereo not shown) [turkesterone-11a-decanoate] | > 33 | > 33 | > 33 | > 33 | – | – | – | – |
| CCCCCC(=O)OC1CC2(C)C(C(C)(O)C(O)CCC(C)(C)O)CCC2(O)C2=CC(=O)C3CC(O)C(O)CC3(C)C21 (stereo not shown) [turkesterone-11 a -hexanoate] | > 33 | > 33 | > 33 | > 33 | – | – | – | – |
| CC(CC(O)C(C)(O)C1CCC2(O)C3=CC(=O)C4CC(O)C(O)CC4(C)C3CCC12C)C(C)(C)O (stereo not shown) [makisterone A] | ~10 | ~15 | > 33 | ~20 | – | – | – | – |
| CC(C)(O)C(CCC(C)(O)C1CCC2(O)C3=CC(=O)C4CC(O)C(O)CC4(C)C3CCC12C)OC(=O)c1ccc[nH]1 (stereo not shown) [canescensterone] | > 10 | ~0.2 | > 10 | ~0.33 | – | – | – | – |
| C[C@@H]1C(=O)O[C@H](C)[C@H]1C[C@@H](O)[C@](C)(O)[C@H]1CC[C@@]2(O)C3=CC(=O)[C@@H]4C[C@@H](O)[C@@H](O)C[C@]4(C)[C@H]3CC[C@]12C [cyasterone] | 1.53 | ~10 | ~1 | > 33 | – | – | – | – |
